Measurements as given in patent publication US20040259948A1, “Reciprocal regulation of inflammation and lipid metabolism by liver X receptors” (priority 2003, published 2004).

Key:
[1] = biological target: T1, LXRβ/RXRα (Homo sapiens, UniProt P55055); assay: Luciferase reporter transfection in RAW 264.7 cells, LXRβ/RXRα; format: cell-based; conditions: 2 μM
T1 construct: expressed in transfected cells; host or cells: RAW 264.7
T1 sequence (P55055 1-460): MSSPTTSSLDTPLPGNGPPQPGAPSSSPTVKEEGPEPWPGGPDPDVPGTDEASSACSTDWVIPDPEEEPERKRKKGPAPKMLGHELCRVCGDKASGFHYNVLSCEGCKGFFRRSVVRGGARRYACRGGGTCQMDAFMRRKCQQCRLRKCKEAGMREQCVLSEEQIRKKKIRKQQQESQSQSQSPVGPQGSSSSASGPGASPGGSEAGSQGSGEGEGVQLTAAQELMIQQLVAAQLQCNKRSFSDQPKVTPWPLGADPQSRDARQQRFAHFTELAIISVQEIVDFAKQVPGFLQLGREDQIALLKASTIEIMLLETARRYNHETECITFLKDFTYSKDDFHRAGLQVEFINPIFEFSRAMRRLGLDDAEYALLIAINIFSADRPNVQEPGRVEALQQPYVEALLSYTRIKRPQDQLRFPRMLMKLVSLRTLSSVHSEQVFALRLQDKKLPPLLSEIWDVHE
T1 sequence (P19793 1-462 partner): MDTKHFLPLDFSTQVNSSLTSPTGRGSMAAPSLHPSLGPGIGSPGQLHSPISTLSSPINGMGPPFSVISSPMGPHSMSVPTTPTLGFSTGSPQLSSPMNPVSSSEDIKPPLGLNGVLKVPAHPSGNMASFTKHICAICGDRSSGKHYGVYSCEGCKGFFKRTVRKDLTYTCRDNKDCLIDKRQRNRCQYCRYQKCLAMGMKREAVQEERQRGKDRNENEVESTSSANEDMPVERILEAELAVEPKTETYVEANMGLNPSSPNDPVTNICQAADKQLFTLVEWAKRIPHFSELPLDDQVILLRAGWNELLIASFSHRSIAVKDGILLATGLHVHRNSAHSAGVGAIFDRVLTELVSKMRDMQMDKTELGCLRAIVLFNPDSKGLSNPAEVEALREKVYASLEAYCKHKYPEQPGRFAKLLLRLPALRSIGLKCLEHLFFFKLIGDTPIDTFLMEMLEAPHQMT
Experimental: We next investigated the mechanism by which LXR inhibits iNOS and COX-2 expression. […] RAW 264.7 cells were transfected with expression vectors for either LXRα/RXRα or LXRβ/RXRα along with luciferase reporter constructs. The LXR agonist inhibited expression of both iNOS and COX-2 gene promoters in a receptor-dependent fashion (FIG. 4 A and B). […] E, A dominant-negative IKK expression vector (IKK DN) blocks LXR-dependent repression of the COX-2 promoter. Transfected cells were treated with DMSO (ctrl), GW3965 (GW), LPS, or GW3965 and LPS. […] RAW 264.7 cells were transiently transfected with expression vectors for LXRα/RXRα, LXRβ/RXRα or dominant-negative I kappa B kinase (IKK) along with iNOS (A), COX-2 (B, E, F), NF-κB (C), AP-1 (D) or COX-2/NF-κB mutant (F) luciferase reporters. […] As activation of iNOS and COX-2 gene promoters by LPS is known to depend on interactions between AP-1 and NF-κB transcription factors, the effect of LXR on minimal promoters containing binding sites for these factors was evaluated. […] Moreover, the inhibitory effect of LXR on the COX-2 promoter was lost when NF-κB activity was blocked by transfection of a dominant-negative IKK or when binding sites for NF-κB were mutated (FIGS. 4E and F). These observations indicate that inhibition of inflammatory gene expression by LXR ligands involves antagonism of NF-κB signaling.
Reagents and plasmids. […] Oxysterols, LDL and ox-LDL were from Sigma and Intracell, respectively. LPS from Salmonella typhimurium was from Sigma. Expression plasmids for LXRα, LXRβ and IKK-DN (Castrillo, A. et al. 2001 J Biol Chem 276:15854-15860; Laffitte, B. A. et al. 2001 Mol Cell Biol 21:7558-7568), and reporter plasmids for NOS-2, (NFκB)3-LUC, (AP-1)4-LUC and COX-2 have been described (Callejas, N. A. et al. 2000 Gastroenterology 119:493-501).
Cell culture and transfections. Thioglycolate-elicited peritoneal macrophages were cultured in RPMI containing 10% fetal bovine serum (FBS). […] NO production was determined spectrophotometrically (Castrillo, A. et al. 2000 Mol Cell Biol 20:1692-1698).

[2] = tested on: human aortic endothelial cells; assay: TNF-induced gene expression in human aortic endothelial cells; format: cell-based; conditions: TNF 6 hours; real time qPCR
Experimental: Activation of LXR by synthetic ligands inhibits inflammatory gene expression in multiple human cell types (FIG. 7A-C). TNFα plays a role in the induction of inflammatory mediators in during inflammation. Cells were treated for 6 hours with TNF as indicated and gene expression was measured by real time qPCR.

induction of the COX-2 promoter by LPS (luciferase reporter) [1]: inhibits induction | induction of the iNOS promoter by LPS (luciferase reporter) [1]: inhibits induction | luciferase reporter containing multiple NF-κB binding sites ([1]; LPS): inhibits expression
SMILES: O=C(O)Cc1cccc(OCCCN(Cc2cccc(C(F)(F)F)c2Cl)CC(c2ccccc2)c2ccccc2)c1 [GW3965]
TNF-induced gene expression [2]: inhibited
